The text below walks through data of patent US8399683B2 (TetraLogic Pharmaceuticals, priority 2008, dated 2013).

The Kd is a measure of binding affinity in units of concentration. By CC50 is commonly meant the concentration at which the toxic effect on the cells reaches its halfway point. Higher therefore signals lower toxicity to the cells.

For assay [1], the target named is cIAP-1 BIR-3 (Homo sapiens, UniProt Q13490). The assay is described as follows: Fluorescence polarization binding affinity to cIAP-1 BIR-3 (competition with AbuRPF-K(5-Fam)-NH2). The settings on record: 5 nM labeled peptide, 40 nM BIR3, 15 min at RT, pH 7.5; reported as ranges; read-out: KD (c-IAP-1 BIR3). As for the experimental part:
(§1) The binding affinities of the compounds are reported as a KD value (μM). Briefly, various concentrations of test peptides were mixed with 5 nM of the fluorescently labeled peptide (i.e., a mutated N-terminal Smac peptide—AbuRPF-K(5-Fam)-NH2) and 40 nM of the respective IAP BIR3 for 15 min at RT in […] of 0.1M Potassium Phosphate buffer, pH 7.5 containing […] bovine g-globulin. Following incubation, the polarization values (mP) were measured on a Victor2V (available from PerkinElmer Life Sciences) using a 485 nm excitation filter and a 520 nm emission filter. The reported KD values are supplied as ranges (A=<0.1 μM, B=0.1 μM to 1 μM, C>1 μM to 10 μM, D=>10 μM).
(In fluorescence polarisation assays a small probe gives low polarisation when free and higher when bound to something large.)

Assay [2] relates to SK-OV-3 cells. The assay is described as follows: Growth inhibition of ovarian cancer cell line SK-OV-3 (MTT assay, cell survival). The settings on record: Homo sapiens, drug concentration that results in 50% cell survival, 72 hrs incubation, reported as ranges. The format is cell-based. As for the experimental part: Compounds of the invention also were tested for their ability to inhibit the growth of an ovarian cancer cell line, SK-OV-3. A known assay previously used for measuring cell growth (as described in Hansen, M. B., Nielsen, S. E., and Berg, K. (1989) J. Immunol. Methods 119, 203-210 and incorporated herein by reference in its entirety) was used. Briefly, SK-OV-3 cells are seeded in 96-well plates in McCoy's medium containing 10% fetal bovine serum albumin (5,000 per well) and incubated overnight at 37° C. The next day, test compounds are added at various concentrations (0.003-10 μM) and the plates are incubated at 37° C. for an additional 72 hrs. This incubation time was considered to be optimal for measuring inhibitory effects of the different compounds tested. 50 microliters of 5 mg/mL MTT reagent is added to each well and the plates are incubated at 37° C. for another three (3) hours. At the end of the three (3) hour incubation period, 50 microliters of DMSO is added to each well to dissolve cells and the optical density (OD) of the wells is measured with a microplate reader (Victor^2 1420, Wallac, Finland) at 535 nm. Cell survival (CS) was calculated using the following equation: CS=(OD treated well/mean OD control wells)×100%.
The CC50 (reported in the following tables), is defined as the drug concentration that results in 50% cell survival (CS), and is derived by calculating the point where the dose-response curve crosses the 50% CS point using GraphPad Prism. The reported CC50 values are supplied as ranges (A=<0.1 μM, B=0.1 μM to 1 μM, C=>1 μM to 10 μM, D=>10 μM).
Background: Tetrazolium assays rely on reduction of a dye to a coloured formazan, in cell work by metabolically active cells.

In assay [3] the target is T1, XIAP BIR-3 (Homo sapiens, UniProt P98170).
T1 construct: 40 nM of the respective IAP BIR3
T1 sequence (P98170 241-356 limits assumed): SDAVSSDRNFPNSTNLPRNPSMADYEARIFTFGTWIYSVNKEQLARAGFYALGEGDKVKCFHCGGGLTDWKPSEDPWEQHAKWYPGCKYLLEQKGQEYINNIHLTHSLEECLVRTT
The assay is described as follows: Fluorescence polarization binding affinity to XIAP BIR-3 (competition with AbuRPF-K(5-Fam)-NH2). The settings on record: 5 nM labeled peptide, 40 nM BIR3, 15 min at RT, pH 7.5; reported as ranges. As to the method: as §1

Chain of cIAP-1 BIR-3 (Q13490 266-352 limits assumed): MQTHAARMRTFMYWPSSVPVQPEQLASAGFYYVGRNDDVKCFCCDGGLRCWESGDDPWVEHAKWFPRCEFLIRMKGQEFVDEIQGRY

For `CN[C@@H](C)C(=O)N[C@H](C(=O)N1CC[C@H]2NC[C@@H](c3c[nH]c4ccccc34)[C@H]21)C1CCCCC1` [Example 1, N-{1S-Cyclohexyl-2-[(3aR,6aR)-6R-(1H-indol-3-yl)-hexahydro-pyrrolo[3,2-b]pyrrol-1-yl]-2-oxo-ethyl}-2S-methylamino-propionamide], the Kd in assay [1] and in assay [3] was over 10000 nM each time. In addition, the CC50 in assay [2] fell in the range of 1000 to 10000 nM.

With `CN[C@@H](C)C(=O)N[C@H](C(=O)N1CC[C@H]2NC[C@H](c3c[nH]c4ccccc34)[C@H]21)C1CCCCC1` [Example 2, N-{1S-Cyclohexyl-2-[(3aR,6aR)-6S-(1H-indol-3-yl)-hexahydro-pyrrolo[3,2-b]pyrrol-1-yl]-2-oxo-ethyl}-2S-methylamino-propionamide], the Kd in assay [1] and in assay [3] was under 100 nM throughout. The CC50 in assay [2] fell in the range of 100 to 1000 nM.

Take `CN[C@@H](C)C(=O)N[C@H](C(=O)N1CC[C@@H]2[C@H]1[C@H](c1c[nH]c3cc(F)ccc13)CN2C1CCCC1)C(C)(C)C` [Example 3, N-{1-[4-Cyclopentyl-6-(6-fluoro-1H-indol-3-yl)-hexahydro-pyrrolo[3,2-b]pyrrole-1-carbonyl]-2,2-dimethyl-propyl}-2-methylamino-propionamide]: the equilibrium dissociation constant (Kd) in assay [1] and in assay [3] was 1000 to 10000 nM each time. The molecule further yielded a CC50 in assay [2] of 1000 to 10000 nM.

With `CN[C@@H](C)C(=O)N[C@H](C(=O)N1CC[C@@H]2[C@H]1[C@@H](c1c[nH]c3cc(F)ccc13)CN2C1CCCC1)C(C)(C)C` [Example 4], the Kd in assay [1] and in assay [3] was under 100 nM throughout. In assay [2], this molecule gave a CC50 of under 100 nM.

Take `CC[C@H](NC(=O)[C@H](C)NC)C(=O)N1CC[C@@H]2[C@H]1[C@H](c1c[nH]c3cc(F)ccc13)CN2C1CCCC1` [Example 5, N-{1-[4-Cyclopentyl-6-(6-fluoro-1H-indol-3-yl)-hexahydro-pyrrolo[3,2-b]pyrrole-1-carbonyl]-propyl}-2-methylamino-propionamide]: the Kd in assay [1] was 100 to 1000 nM; in assay [3], over 10000 nM. The CC50 in assay [2] was in the range of 1000 to 10000 nM.

Consider `CC[C@H](NC(=O)[C@H](C)NC)C(=O)N1CC[C@@H]2[C@H]1[C@@H](c1c[nH]c3cc(F)ccc13)CN2C1CCCC1` [Example 6], for which the Kd in assay [1] and in assay [3] was 100 to 1000 nM in each case. This molecule yielded a CC50 in assay [2] of 100 to 1000 nM.

Regarding `CN[C@@H](C)C(=O)N[C@H](C(=O)N1CC[C@@H]2[C@H]1[C@H](c1c[nH]c3cc(F)ccc13)CN2C1CCCC1)C(C)C` [Example 7, N-{1-[4-Cyclopentyl-6-(6-fluoro-1H-indol-3-yl)-hexahydro-pyrrolo[3,2-b]pyrrole-1-carbonyl]-2-methyl-propyl}-2-methylamino-propionamide], the Kd in assay [1] lay within 100 to 1000 nM; in assay [3], 1000 to 10000 nM. In assay [2], this molecule displayed a CC50 of 1000 to 10000 nM.

For the molecule `CN[C@@H](C)C(=O)N[C@H](C(=O)N1CC[C@@H]2[C@H]1[C@@H](c1c[nH]c3cc(F)ccc13)CN2C1CCCC1)C(C)C` [Example 8], the values for the Kd in assay [1] and in assay [3] were under 100 nM and 100 to 1000 nM, respectively. Besides, the CC50 in assay [2] was in the range of 100 to 1000 nM.

In the case of `CN[C@@H](C)C(=O)N[C@H](C(=O)N1CC[C@@H]2[C@H]1[C@@H](c1c[nH]c3cc(F)ccc13)CN2C1CCCC1)C1CCCCC1` [Example 9, N-{1-Cyclohexyl-2-[4-cyclopentyl-6-(6-fluoro-1H-indol-3-yl)-hexahydro-pyrrolo[3,2-b]pyrrol-1-yl]-2-oxo-ethyl}-2-methylamino-propionamide], the Kd in assay [1] was under 100 nM; in assay [3], 100 to 1000 nM. This molecule yielded a CC50 in assay [2] of under 100 nM.

Consider `CN[C@@H](C)C(=O)N[C@@H](CO)C(=O)N1CC[C@@H]2[C@H]1[C@H](c1c[nH]c3cc(F)ccc13)CN2C1CCCC1` [Example 10, N-{2-[4-Cyclopentyl-6-(6-fluoro-1H-indol-3-yl)-hexahydro-pyrrolo[3,2-b]pyrrol-1-yl]-1-hydroxymethyl-2-oxo-ethyl}-2-methylamino-propionamide], for which the Kd in assay [1] was 100 to 1000 nM; in assay [3], over 10000 nM. The CC50 in assay [2] was in the range of 1000 to 10000 nM.

On to `CN[C@@H](C)C(=O)N[C@@H](CO)C(=O)N1CC[C@@H]2[C@H]1[C@@H](c1c[nH]c3cc(F)ccc13)CN2C1CCCC1` [Example 11], for which the Kd in assay [1] was under 100 nM; in assay [3] it was 100 to 1000 nM. In assay [2], this molecule returned a CC50 of over 10000 nM.

As to `CN[C@@H](C)C(=O)N[C@@H](COC)C(=O)N1CC[C@@H]2[C@H]1[C@H](c1c[nH]c3cc(F)ccc13)CN2C1CCCC1` [Example 12, N-{2-[4-Cyclopentyl-6-(6-fluoro-1H-indol-3-yl)-hexahydro-pyrrolo[3,2-b]pyrrol-1-yl]-1-methoxymethyl-2-oxo-ethyl}-2-methylamino-propionamide], the Kd in assay [1] is under 100 nM; in assay [3] it was 1000 to 10000 nM. The molecule also had a CC50 in assay [2] of over 10000 nM.

`CN[C@@H](C)C(=O)N[C@@H](COC)C(=O)N1CC[C@@H]2[C@H]1[C@@H](c1c[nH]c3cc(F)ccc13)CN2C1CCCC1` [Example 13]: the figures for the Kd in assay [1] and in assay [3] were 100 to 1000 nM and 1000 to 10000 nM, respectively. The molecule further returned a CC50 in assay [2] of 1000 to 10000 nM.

`CN[C@@H](C)C(=O)N[C@H](C(=O)N1CC[C@@H]2[C@H]1[C@H](c1c[nH]c3cc(F)ccc13)CN2C1CCCC1)[C@@H](C)O` [Example 14, N-{1-[4-Cyclopentyl-6-(6-fluoro-1H-indol-3-yl)-hexahydro-pyrrolo[3,2-b]pyrrole-1-carbonyl]-2-hydroxy-propyl}-2-methylamino-propionamide]: the Kd was 100 to 1000 nM in assay [1] and over 10000 nM in assay [3]. Further, in assay [2], the CC50 was over 10000 nM.

Regarding `CN[C@@H](C)C(=O)N[C@H](C(=O)N1CC[C@@H]2[C@H]1[C@@H](c1c[nH]c3cc(F)ccc13)CN2C1CCCC1)[C@@H](C)O` [Example 15], the Kd in assay [1] and in assay [3] was 100 to 1000 nM each time. In assay [2], this molecule yielded a CC50 of 100 to 1000 nM.

Consider `CN[C@@H](C)C(=O)N[C@H](C(=O)N1CC[C@@H]2[C@H]1[C@@H](c1c[nH]c3cc(F)ccc13)CN2C1CCCC1)[C@@H](C)OC` [Example 16, N-{1-[4-Cyclopentyl-6-(6-fluoro-1H-indol-3-yl)-hexahydro-pyrrolo-[3,2-b]pyrrole-1-carbonyl]-2-methoxy-propyl}-2-methylamino-propionamide], for which the Kd in assay [1] is under 100 nM; in assay [3] it was 100 to 1000 nM. The molecule further gave a CC50 in assay [2] of 100 to 1000 nM.

For `CN[C@@H](C)C(=O)N[C@H](C(=O)N1CC[C@@H]2[C@H]1[C@@H](c1c[nH]c3cc(F)ccc13)CN2C)C1CCCCC1` [Example 17, N-{1-Cyclohexyl-2-[6-(6-fluoro-1H-indol-3-yl)-4-methyl-hexahydro-pyrrolo[3,2-b]pyrrol-1-yl]-2-oxo-ethyl}-2-methylamino-propionamide], the Kd was under 100 nM in assay [1] and 100 to 1000 nM in assay [3]. In assay [2], this molecule had a CC50 of 100 to 1000 nM.

As for `CCN1C[C@H](c2c[nH]c3cc(F)ccc23)[C@@H]2[C@H]1CCN2C(=O)[C@@H](NC(=O)[C@H](C)NC)C1CCCCC1` [Example 18, N-{1-Cyclohexyl-2-[4-ethyl-6-(6-fluoro-1H-indol-3-yl)-hexahydro-pyrrolo[3,2-b]pyrrol-1-yl]-2-oxo-ethyl}-2-methylamino-propionamide], the results for the Kd in assay [1] and in assay [3] were under 100 nM and 100 to 1000 nM, respectively. In addition, the CC50 in assay [2] lay in the range of 100 to 1000 nM.

With `CN[C@@H](C)C(=O)N[C@H](C(=O)N1CC[C@@H]2[C@H]1[C@@H](c1c[nH]c3cc(F)ccc13)CN2C(C)C)C1CCCCC1` [Example 19, N-{1-Cyclohexyl-2-[6-(6-fluoro-1H-indol-3-yl)-4-isopropyl-hexahydro-pyrrolo[3,2-b]pyrrol-1-yl]-2-oxo-ethyl}-2-methylamino-propionamide], the Kd is under 100 nM in assay [1] and 1000 to 10000 nM in assay [3]. In assay [2], this molecule gave a CC50 of 100 to 1000 nM.
